Experimental data published in patent publication US20220282217A1, “COMPOSITIONS AND METHODS FOR PREPARING T CELL COMPOSITIONS AND USES THEREOF” (priority 2019, published 2022).
Where a SMILES comes first, the peptide text is derived from it.

How the values were obtained:
HLA-A02.01 [1] = target: T1, HLA-A02.01 (Homo sapiens, UniProt P04439, D140Y/D185E/D98H/E176V/E277Q/G131W/G231S/I119V/I121R/I166T/I218V/N151K/N90K/P208A/P217A/Q86G/Q94H/R138H/R169H); assay: Class I MHC peptide binding stability (pMHC-I dissociation, 125I-labeled light chain); settings: for Stability (T1/2 (h)): allele A02.01; for Measured stability: HLA Allele A02.01, time for half of the complexes to dissociate at 37° C.
T1 construct: made in house; host or cells: E. coli

HLA-A02.01 [2] = target: HLA-A02.01 (Homo sapiens, UniProt P04439, D140Y/D185E/D98H/E176V/E277Q/G131W/G231S/I119V/I121R/I166T/I218V/L300P/L318F/N151K/N90K/P208A/P217A/Q86G/Q94H/R138H/R169H/T345S); assay: Class I MHC peptide binding affinity (displacement of radiolabeled reference peptide); settings: allele A02.01; read-out: Observed Affinity (IC50; (nM))
In short: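 Displacement format in which varying amounts of peptide compete for 2 days with a radiolabeled reference ligand prebound to class I MHC, residual complex-associated label being measured after gel-filtration separation.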

Compound | IC50 (HLA-A02.01 [2]) [nM] | Stability (T1/2 (h)) (HLA-A02.01 [1]) [h] | Measured stability (HLA-A02.01 [1]) [h]
CC(C)C[C@H](NC(=O)[C@H](CO)NC(=O)[C@H](CS)NC(=O)[C@H](CCC(=O)O)NC(=O)[C@H](Cc1c[nH]c2ccccc12)NC(=O)[C@H](CC(C)C)NC(=O)[C@H](C)NC(=O)[C@H](CC(C)C)NC(=O)[C@H](CC(C)C)NC(=O)[C@@H](N)Cc1ccccc1)C(=O)O | – | 10.8 | –
CC(C)C[C@H](NC(=O)[C@@H](N)CCCCN)C(=O)N[C@H](C(=O)N[C@H](C(=O)N[C@H](C(=O)NCC(=O)N[C@@H](C)C(=O)N[C@@H](CC(=O)O)C(=O)NCC(=O)N[C@H](C(=O)O)C(C)C)C(C)C)C(C)C)C(C)C | – | 0.9 | 0.9
CC(C)C[C@H](NC(=O)[C@H](CO)NC(=O)[C@H](CS)NC(=O)[C@H](CCC(=O)O)NC(=O)[C@H](Cc1c[nH]c2ccccc12)NC(=O)[C@H](CC(C)C)NC(=O)[C@H](C)NC(=O)[C@H](CC(C)C)NC(=O)[C@@H](N)CC(C)C)C(=O)O | – | 4 | –
CC(C)C[C@H](N)C(=O)N[C@H](C(=O)N[C@H](C(=O)N[C@H](C(=O)NCC(=O)N[C@@H](C)C(=O)N[C@H](C(=O)NCC(=O)N[C@H](C(=O)O)C(C)C)C(C)C)C(C)C)C(C)C)C(C)C | – | 0.6 | 0.6
CC[C@H](C)[C@H](N)C(=O)N[C@H](C(=O)N[C@H](C(=O)N[C@@H](CCC(=O)O)C(=O)N[C@@H](Cc1ccc(O)cc1)C(=O)N[C@@H](CS)C(=O)N[C@@H](Cc1ccccc1)C(=O)N[C@@H](Cc1ccc(O)cc1)C(=O)NCC(=O)O)[C@@H](C)CC)[C@@H](C)CC (H-IIIEYCFYG-OH; N-terminus and C-terminus assumed) | – | 1.2 | –
CSCC[C@H](NC(=O)[C@H](CCC(N)=O)NC(=O)[C@H](CC(C)C)NC(=O)[C@@H](NC(=O)[C@@H](N)CCCCN)C(C)C)C(=O)N[C@@H](CC(=O)O)C(=O)N[C@@H](Cc1ccccc1)C(=O)N[C@@H](CC(C)C)C(=O)N[C@H](C(=O)O)C(C)C (H-KVLQMDFLV-OH; N-terminus and C-terminus assumed) | – | 6.4 | –
CC[C@H](C)[C@H](NC(=O)[C@@H](N)C(C)C)C(=O)N[C@H](C(=O)N[C@@H](CCC(=O)O)C(=O)N[C@@H](Cc1ccc(O)cc1)C(=O)N[C@@H](CS)C(=O)N[C@@H](CS)C(=O)N[C@@H](Cc1ccc(O)cc1)C(=O)NCC(=O)O)[C@@H](C)CC (H-VIIEYCCYG-OH; N-terminus and C-terminus assumed) | – | 0.5 | –
CC[C@H](C)[C@H](NC(=O)[C@@H](NC(=O)[C@@H](N)CC(C)C)[C@@H](C)O)C(=O)N[C@@H](CC(N)=O)C(=O)N[C@@H](CCCCN)C(=O)N[C@@H](CCC(=O)O)C(=O)N[C@@H](CCC(=O)O)C(=O)N[C@@H](C)C(=O)N[C@@H](CC(C)C)C(=O)O [LTINKEEAL] | 4410 | – | –

Continued, in another order:

IC50 (HLA-A02.01 [2]) [nM] | Compound | Stability (T1/2 (h)) (HLA-A02.01 [1]) [h] | Measured stability (HLA-A02.01 [1]) [h]
50300 | CC(C)C[C@H](NC(=O)[C@H](C)NC(=O)[C@H](CCC(=O)O)NC(=O)[C@H](CCC(N)=O)NC(=O)[C@@H](NC(=O)[C@H](CC(=O)O)NC(=O)[C@H](Cc1ccccc1)NC(=O)[C@H](CCC(=O)O)NC(=O)[C@H](CCC(N)=O)NC(=O)[C@@H](N)CC(C)C)C(C)C)C(=O)O [LQEFDVQEAL] (H-LQEFDVQEAL-OH) | – | –
718 | CC(C)C[C@H](NC(=O)[C@H](C)NC(=O)[C@H](Cc1ccccc1)NC(=O)[C@H](CO)NC(=O)[C@@H](NC(=O)[C@H](CCC(N)=O)NC(=O)[C@@H](NC(=O)[C@@H](NC(=O)[C@H](CCC(N)=O)NC(=O)[C@@H](N)CC(C)C)C(C)C)[C@@H](C)O)[C@@H](C)O)C(=O)O [LQVTQTSFAL] (H-LQVTQTSFAL-OH; N-terminus and C-terminus assumed) | – | –
54.2 | CC(C)C[C@H](NC(=O)[C@H](C)NC(=O)[C@@H](NC(=O)[C@@H]1CCCN1C(=O)[C@@H](NC(=O)[C@H](CS)NC(=O)[C@H](CO)NC(=O)[C@H](CO)NC(=O)[C@H](CC(C)C)NC(=O)[C@@H](N)CCCNC(=N)N)C(C)C)C(C)C)C(=O)O [RLSSCVPVAL] (H-RLSSCVPVAL-OH; N-terminus and C-terminus assumed) | – | –
